Measurements from patent publication US6737247B2, “Imaging of enzymatic activity” (The General Hospital Corporation, priority 2000, dated 2004).

Key:
peroxidase [1] = assay: H1 NMR relaxometry / relaxivity enhancement after peroxidase treatment; assay type: biochemical; conditions: equimolar amount added to the peroxidase reaction
peroxidase [2] = assay: Kinetics of peroxidase-mediated oxidation in excess hydrogen peroxide, spectrophotometry at 400 nm; assay type: biochemical; conditions: absorbance at 400 nm
Procedure: Substrates I and II at concentrations of 10-50 μM were treated by peroxidase (0.1-100 nM) and an excess of hydrogen peroxide (3.5 mM) in 10 mM phosphate-buffered saline (PBS) or 0.05 M sodium phosphate pH 6.8. In some experiments, a peroxide-generating system (5 mM glucose, glucose oxidase and lactoperoxidase) was used. In inhibition studies, 2 mM Gd-free substrate, tyramine, dopamine, or methyldopamine were added as competitive inhibitors. The reaction was monitored by spectrophotometry at 400 nm and by NMR spectrometry (Minispec 120 Bruker). Magnetic resonance imaging was performed using a 1.5 T Signa GE system and surface or knee coils. Inversion-recovery pulse sequences (TE 11 ms/TR 1000 ms/TI 50-600 ms) were used for T1 measurements. Spin-echo sequence (TE 13 ms/TR 400 ms/2 NEX, Matrix 256×160) was optimal for magnetic resonance imaging of signal amplification. Magnetic resonance signal intensity was measured using region-of-interest approach and 16-bit TIFF images. […]
Kinetics of oxidation of tyraminyl-DOTA(Gd), I, or hydroxytyraminyl-DOTA(Gd), II, in the presence of the excess of hydrogen peroxide was studied using spectrophotometry. The increase in absorbance at 400 nm in the case of both gadolinium-labeled substrates was rapid, indicating efficient oxidation of both substrates, and gave similar pseudo-first order kinetic constants: k1app=0.0125 s^−1 (I) and 0.013 s^−1 (II).

peroxidase [3] = assay: H1 NMR relaxometry / relaxivity enhancement after peroxidase treatment; assay type: biochemical; conditions: for r1, peroxidase: after peroxidase; for r1, control: no peroxidase
Procedure: Substrates I and II at concentrations of 10-50 μM were treated by peroxidase (0.1-100 nM) and an excess of hydrogen peroxide (3.5 mM) in 10 mM phosphate-buffered saline (PBS) or 0.05 M sodium phosphate pH 6.8. In some experiments, a peroxide-generating system (5 mM glucose, glucose oxidase and lactoperoxidase) was used. In inhibition studies, 2 mM Gd-free substrate, tyramine, dopamine, or methyldopamine were added as competitive inhibitors. The reaction was monitored by spectrophotometry at 400 nm and by NMR spectrometry (Minispec 120 Bruker). Magnetic resonance imaging was performed using a 1.5 T Signa GE system and surface or knee coils. Inversion-recovery pulse sequences (TE 11 ms/TR 1000 ms/TI 50-600 ms) were used for T1 measurements. […] Magnetic resonance signal intensity was measured using region-of-interest approach and 16-bit TIFF images. Mean pixel values were compared using a Student t-test.

[4] = Chelex-100 resin treatment to test dissociation of gadolinium from the DOTA(Gd) complex; assay type: physicochemical; conditions: compared to control with no peroxidase added
From the text: By plotting relaxation data against the concentration of gadolinium, a raise of 1/T1 and I/T2 of 2 fold (at 0.47 T) and 2.7 fold (1.5 T) in the case of substrate I, and 3.5 (at 0.47 T) in the case of substrate II has been measured (Table 1). […] To find out whether the increase in relaxivity is a result of dissociation of gadolinium cation from a DOTA(Gd) complex, we treated Tyr-DOTA(Gd) or Dopamine-DOTA(Gd) with Chelex-100 resin and compared it to the control with no peroxidase added. No difference in T1 relaxation time of substrate solutions before and after the treatment was observed.

[5] = test system: digoxigenin-labeled Fab2' fragment of monoclonal antibody; assay: MRAMP ELISA-like assay with adsorbed DIG-labeled Fab2' fragment and anti-digoxigenin-peroxidase conjugate; conditions: 0.4 mM substrate, 3.5 mM hydrogen peroxide, 96-well plate
Procedure: Fab2′ fragment of H18/7 monoclonal anti-human E selectin antibody was prepared using pepsin digestion, and then purified. Labeling of Fab2′-fragment with digoxigenin (DIG) hydroxysuccinimide ester (HSE) (Roche Molecular Diagnostics) was carried out according to the vendor's instructions. One ng to 1000 ng of DIG-labeled antibody was serially diluted with 0.01 M sodium carbonate (pH 9) in a 96-well plate (Nunc) and adsorbed at 37° C. overnight. Wells were washed with PBS containing 0.1% Tween 20 (PBST) blocked with BSA solution, and anti-DIG antibody-peroxidase conjugate (Roche, diluted 1:1000) was incubated in wells in PBS-B for 1 hour. Washed wells were filled with 200 μl of 0.4 mM substrate I or II and hydrogen peroxide (3.5 mM) and incubated for 30 min before imaging. Cells (2 million/sample) were treated sequentially with IL-1β, anti-E selectin DIG-labeled Fab2′-fragment, and anti-DIG antibody-peroxidase. Cell suspensions were prepared in PBS and substrates were used as above. Cells were pelleted in Eppendorf tubes (0.5 ml), and then imaged as described above. […] Magnetic resonance signal intensity was quantified as described above and compared to that of aqueous Gd solutions.
In the next series of experiments, we determined whether MRAMP could be utilized to detect a model ligand in an ELISA-like assay. […]

| Compound | influence of added equimolar competitor on gadolinium relaxivity (peroxidase [1]) | pseudo-first order kinetic constant k1app (peroxidase [2]) | raise of 1/T1 and 1/T2 after addition of the enzyme (peroxidase [3]; 0.47 T) | r1, peroxidase (peroxidase [3]; 0.47 T (20 MHz)) | r1, control (peroxidase [3]; 0.47 T (20 MHz)) | r1, peroxidase (peroxidase [3]; 1.5 T (63 MHz)) | r1, control (peroxidase [3]; 1.5 T (63 MHz)) | difference in T1 relaxation time of substrate solutions before and after Chelex-100 treatment [4] | also measured |
| --- | --- | --- | --- | --- | --- | --- | --- | --- | --- |
| NCCc1ccc(O)c(O)c1 [dopamine] | did not influence gadolinium relaxivity | – | – | – | – | – | – | – | – |
| NCCc1ccc(O)cc1 [tyramine] | did not influence gadolinium relaxivity | – | – | – | – | – | – | – | – |
| N[C@@H](Cc1ccc(O)cc1)C(=O)O [tyrosine] | did not influence gadolinium relaxivity | – | – | – | – | – | – | – | – |
| hydroxytyraminyl-DOTA(Gd) [Substrate II] | – | 0.013 s⁻¹ | 3.5 fold | 11.50 mM⁻¹ s⁻¹ | 3.75 mM⁻¹ s⁻¹ | 14.1 mM⁻¹ s⁻¹ | 5.2 mM⁻¹ s⁻¹ | No difference | antibody fragment detected at threshold (sensitivity of MRAMP assay) [5]: 1 ng |
| methyl-dopamine | did not influence gadolinium relaxivity | – | – | – | – | – | – | – | – |
| tyramine-[1,4,7,10-tetraazacyclododecane-N,N′,N″,N′″-tetraacetic acid, gadolinium salt] [Substrate I] | – | 0.0125 s⁻¹ | 2 fold | 7.10 mM⁻¹ s⁻¹ | 3.30 mM⁻¹ s⁻¹ | 10.1 mM⁻¹ s⁻¹ | 4.5 mM⁻¹ s⁻¹ | No difference | raise of 1/T1 and 1/T2 after addition of the enzyme (peroxidase [3]; 1.5 T): 2.7 fold |
